How the values were obtained:
[1] = stability test in acceleration conditions (25° C./humidity 60%): appearance, purity and analogs by HPLC, water content, disintegration time, microbial content; assay type: physicochemical
cancer-bearing nude rats = conditions: oral, versus TS-1; cited from earlier work
[2] = system: patients having a solid cancer; conditions: phase-I trial, patients with solid cancer; cited from earlier work
[3] = bulk drug, 25° C./60% RH, after 3 months

SMILES: CCOCn1cc(F)c(=O)n(C(=O)c2cccc(C(=O)Oc3cc(OC(=O)c4cc(OC(=O)CC)nc(OC(=O)CC)c4)c(Cl)cn3)c2)c1=O [DFP-11207]
- stable period (specifications satisfied) ([1]; acceleration conditions (25° C./humidity 60%)): ≤ 3 months
- Analog (% area): Analog-1 (RRT 0.42) [1, 3]: 0.18%
- Analog (% area): Impurity 1 (RRT 0.49) [1, 3]: 0.73%
- Analog (% area): Impurity 2 (RRT 0.74) [1, 3]: 2.13%
- Analog (% area): Impurity 3 (RRT 0.83) [1, 3]: 0.49%
- Analog (% area): Impurity 4 (RRT 1.13) [1, 3]: 0.86%
- Analog (% area): Total impurities [1, 3]: 5.8%
- Analog (% area): relative elution time 0.30 [1, 3]: 0.27%
- Analog (% area): relative elution time 0.80 [1, 3]: 0.21%
- Analog (% area): relative elution time 0.88 [1, 3]: 0.07%
- Analog (% area): relative elution time 0.89 [1, 3]: 0.05%
- Analog (% area): relative elution time 0.90 [1, 3]: 0.10%
- Analog (% area): relative elution time 0.92 [1, 3]: 0.15%
- Analog (% area): relative elution time 0.93 [1, 3]: 0.13%
- Analog (% area): relative elution time 0.94 [1, 3]: 0.05%
- Analog (% area): relative elution time 1.03 [1, 3]: 0.22%
- Analog (% area): relative elution time 1.29 [1, 3]: 0.06%
- Analog (% area): relative elution time 1.30 [1, 3]: 0.09%
- Appearance [1, 3]: Grayish-white
- Purity (% area) [1, 3]: 94.0%
- Water content [1, 3]: 0.2%
- Passing status: Appearance ([1]; bulk drug, 25° C./60% RH, after 3 months, specification Grayish-white to pale yellow): Passed
- Passing status: Water content ([1]; bulk drug, 25° C./60% RH, after 3 months, specification ≤0.5%): Passed
- Passing status: Analog, individual impurities ([1]; bulk drug, 25° C./60% RH, after 3 months, specification ≤1.0%): Not
- Passing status: Total impurities ([1]; bulk drug, 25° C./60% RH, after 3 months, specification ≤4.0%): Not
- therapeutic effects (cancer-bearing nude rats): more excellent than TS-1
- safety (serious gastrointestinal toxicity, reduced blood platelet count) [2]: none of serious gastrointestinal toxicity such as diarrhea and toxicity of reduced blood platelet count were observed
